Measured values: PubChem BioAssay AID1918999 (Molecular Pharmacology Branch, DTP, NCI, 2023)

System: 556581-035-R-J1-PDC complex spheroid growth
Experiment: Anticancer human tumor 556581-035-R-J1-PDC patient-derived ovarian carcinoma cell line growth inhibition [AhR]
Settings: for IC50: curve of first compound; for viability, T/C: stronger effect = lower value
Description: Multicellular complex tumor spheroid response to aryl hydrocarbon receptor antagonists in combination with a variety of drugs and investigational agents in selected tumor cell lines
The current study was undertaken to assess response to aryl hydrocarbon receptor antagonists in combination with standard-of-care drugs and investigational agents in solid tumor complex spheroid models. Complex spheroids include a stromal component modeled by human endothelial cells (HUVEC) and fibroblasts modeled by human mesenchymal stem cells (MSCs). The concentration ranges selected for each drug and investigational agent were based upon clinically achievable concentrations if the clinical Cmax of the agent was known.
Compounds. The drugs and investigational agents: BAY 2416964 (NSC825713), GNF351 (NSC835774), CH-223191 (NSC835775), CPI-455 (NSC825282), aza-TdCyd (NSC777586), decitabine (NSC127716), belinostat (NSC758774), entinostat (NSC756642), pevonedistat (NSC761192), tazemetostat (NSC777109), talazoparib (NSC765396), olaparib (NSC753686), selinexor (NSC780203), nedisertib (M3814, NSC802822), bortezomib (NSC756655), venetoclax (NSC766270), doxorubicin (NSC123127), elimusertib (BAY189344, NSC800525), ceralasertib (AZD6738, NSC777638), TAK-243 (NSC785004), alisertib (NSC759677), etoposide (NSC141540), topotecan (NSC609699), eribulin (NSC707389), gemcitabine (NSC613327), carboplatin (NSC241240), cisplatin (NSC119875), and SN-38 (NSC673596) were obtained from the National Cancer Institute (NCI) Developmental Therapeutics Program Chemical Repository (32). The FDA-approved anticancer drug set is available from the Developmental Therapeutics Program at https://dtp.cancer.gov/organization/dscb/obtaining/available plates.htm. […] The stock solutions were prepared in dimethyl sulfoxide (DMSO, Sigma-Aldrich, St. Louis, MO, cat. D2650), except for the platinum compounds which were prepared in saline (Quality Biological, Gaithersburg, MD, cat. 114-055-101), at 800-fold the tested concentration and stored at -70 degrees C prior to their use. All drugs and investigational agents were tested over a range starting from a high concentration at or near the clinical Cmax and decreasing in half-log increments. If the clinical Cmax for an agent had not been determined, the highest concentration tested was 10 microM (Table 1).
Cell Culture. All cells were maintained in an incubator at 37 degrees C and 5% CO2 with 95% humidity. The PDC lines were cultured according to standard operating procedures established by the NCI PDMR (https://pdmr.cancer.gov). Briefly, all PDCs were thawed and cultured in Matrigel-coated flasks prepared with a working solution of 1X Ham's F-12 nutrient mix, without supplementation (Invitrogen, Waltham, MA, cat. 11765054), 100 U/mL penicillin-streptomycin (Invitrogen, cat. 15140122), and 2.5% Matrigel (Corning Inc., Corning, NY, cat. 354248) for the first three passages. All PDCs were cultured in complete DMEM/F-12 media containing advanced DMEM/F-12 (Invitrogen, cat. 12634028), 4.9% defined fetal bovine serum, heat inactivated (HyClone Laboratories Inc., Logan, UT, cat. SH30070.03HI), 389 ng/mL hydrocortisone (Sigma-Aldrich, cat. H4001), 9.7 ng/mL human EGF recombinant protein (Invitrogen, cat. PHG0313), 23.4 microg/mL adenine (Sigma-Aldrich, cat. A2786), 97.3 U/mL penicillin-streptomycin (Invitrogen, cat. 15140122), 1.9 mM L-glutamine (Invitrogen, cat. 25030081), and 9.7 microM Y-27632 dihydrochloride (Tocris Bioscience, Bristol, United Kingdom, cat. 1254). The PDCs were cultured in complete DMEM/F12 media without 10 microM Y-27632 dihydrochloride for at least two passages prior to the screen. The established cell lines NCI-H1341 and […] were cultured in DMEM/F-12, HEPES (Invitrogen, cat. 11330032), 5% defined fetal bovine serum (HyClone Laboratories Inc., cat. SH30070.03), ITS premix universal culture supplement [insulin (5 microg/mL), transferrin (5 microg/mL), and selenious acid (5 ng/mL)] […]
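Wherever viability, T/C is given: compound exposure lasted 7 days; 100% = DMSO vehicle control growth.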

## COc1cc(C2c3cc4c(cc3C(OC3OC5COC(C)OC5C(O)C3O)C3COC(=O)C23)OCO4)cc(OC)c1O (stereo not given) + CC(CO)NC(=O)c1cc(-c2ccc(Cl)cc2)nn(-c2cnn(C)c2)c1=O
Second compound 0.1 µM
  IC50: > 10 µM
Second compound 0.316 µM
  IC50: 8.09 µM
Second compound 1 µM
  IC50: > 10 µM
Second compound 3.16 µM
  IC50: 6.63 µM
Second compound 10 µM
  IC50: 7.38 µM
Second compound 0.1 µM, first compound 0.0316 µM
  viability, T/C: 111%
Second compound 0.1 µM, first compound 0.1 µM
  viability, T/C: 117%
Second compound 0.1 µM, first compound 0.316 µM
  viability, T/C: 80%
Second compound 0.1 µM, first compound 1 µM
  viability, T/C: 62.9%
Second compound 0.1 µM, first compound 3.16 µM
  viability, T/C: 66%
Second compound 0.1 µM, first compound 10 µM
  viability, T/C: 50.9%
Second compound 0.316 µM, first compound 0.0316 µM
  viability, T/C: 95.4%
Second compound 0.316 µM, first compound 0.1 µM
  viability, T/C: 102%
Second compound 0.316 µM, first compound 0.316 µM
  viability, T/C: 85.6%
Second compound 0.316 µM, first compound 1 µM
  viability, T/C: 67.8%
Second compound 0.316 µM, first compound 3.16 µM
  viability, T/C: 72.8%
Second compound 0.316 µM, first compound 10 µM
  viability, T/C: 44.6%
Second compound 1 µM, first compound 0.0316 µM
  viability, T/C: 109%
Second compound 1 µM, first compound 0.1 µM
  viability, T/C: 104%
Second compound 1 µM, first compound 0.316 µM
  viability, T/C: 81.9%
Second compound 1 µM, first compound 1 µM
  viability, T/C: 62.6%
Second compound 1 µM, first compound 3.16 µM
  viability, T/C: 60.5%
Second compound 1 µM, first compound 10 µM
  viability, T/C: 51.8%
Second compound 3.16 µM, first compound 0.0316 µM
  viability, T/C: 103%
Second compound 3.16 µM, first compound 0.1 µM
  viability, T/C: 102%
Second compound 3.16 µM, first compound 0.316 µM
  viability, T/C: 80%
Second compound 3.16 µM, first compound 1 µM
  viability, T/C: 74.5%
Second compound 3.16 µM, first compound 3.16 µM
  viability, T/C: 59.9%
Second compound 3.16 µM, first compound 10 µM
  viability, T/C: 44.5%
Second compound 10 µM, first compound 0.0316 µM
  viability, T/C: 105%
Second compound 10 µM, first compound 0.1 µM
  viability, T/C: 98.8%
Second compound 10 µM, first compound 0.316 µM
  viability, T/C: 81.7%
Second compound 10 µM, first compound 1 µM
  viability, T/C: 73.5%
Second compound 10 µM, first compound 3.16 µM
  viability, T/C: 59.7%
Second compound 10 µM, first compound 10 µM
  viability, T/C: 46.4%
